{"source": "patent US8822171B1", "about": "“Methods for screening for inhibitors of tau phosphorylation by casein kinase I” (priority 2003, dated 2014)", "system": "Rat and human cortical neurons", "assay": "Amyloid beta treatment of neurons; phosphotyrosine immunoprecipitation and Western blot with tau antibodies", "assay_type": "cell-based", "conditions": "neurons treated with Aβ peptide for 1-10 min", "description": "Rat and human cortical neurons were treated with Aβ peptide (25-35) or reverse Aβ peptide (35-25) for 1-10 min. Proteins containing phosphotyrosine were immunoprecipitated and separated by SDS-PAGE. Western blots of heat-stable extracts of neuronal cultures and immunoprecipitates were probed with antibodies to tau."}
{"substance": "Aβ peptide (25-35) (GSNKGAIIGLM; Amyloid-beta protein 42; UniProt P05067 696-706, looked up, fragment) [amyloid β-peptide fragment 25-35 used to treat rat and human cortical neurons]", "values": [{"measurement": "increase in phosphotyrosine in tau relative to basal level", "result": "approximately four times the basal level"}, {"measurement": "tyrosine phosphorylation of neuronal proteins including tau", "result": "increased tyrosine phosphorylation"}]}
